Measurements reported in ChEMBL document CHEMBL6087402, “Design, synthesis, and in vitro and in vivo biological evaluation of dihydroartemisinin derivatives as potent anti-cancer agents with ferroptosis-inducing and apoptosis-activating properties” (Eur J Med Chem, 2025).
Active and inactive are the calls of the source. The calls are words filed in the database; no cut-off is given here.

Experiments:
Bel-7402 = experiment: Anti-proliferative activity against human Bel-7402 cells incubated for 72 hrs by MTT assay; format: functional, cell-based; conditions: Bel-7402, 72 h
SW-620 = experiment: Anti-proliferative activity against human SW620 cells incubated for 72 hrs by MTT assay; format: functional, cell-based; conditions: SW-620, 72 h
HCT-116 [1] = experiment: Inhibition of colony formation in human HCT-116 cells incubated for 7 to 12 days by crystal violet staining based analysis; format: functional, cell-based; conditions: dose <= 3.0 µM, time 7-12 day
[2] = Selectivity index, ratio of IC50 for human L02 cells to IC50 for human Bel-7402 cells; format: toxicity; conditions: L02 cells versus Bel-7402 cells, read-out: Ratio IC50
[3] = Selectivity index, ratio of IC50 for human L02 cells to IC50 for human HCT-116 cells; format: toxicity; conditions: L02 cells versus HCT-116 cells, read-out: Ratio IC50
HCT-116 [4] = experiment: Inhibition of cell proliferation in human HCT-116 cells at 3 uM incubated for 12 hrs by EdU assay (reference value: 48.14 %); format: functional
HCT-116 [5] = experiment: Anti-proliferative activity against human HCT-116 cells assessed as inhibition of STAT3 phosphorylation upto 3 uM incubated for 72 hrs by Western blot analysis; format: functional, cell-based
HCT-116 [6] = experiment: Induction of intracellular ROS level in human HCT-116 cells upto 3 uM incubated for 24 hrs by DCFH-DA dye based analysis; format: functional, cell-based
HCT-116 [7] = experiment: Induction of lipid peroxidation in human HCT-116 cells upto 3 uM incubated for 24 hrs by confocal fluorescence microscopy; format: functional, cell-based
HCT-116 [8] = experiment: Induction of apoptosis in human HCT-116 cells assessed as early apoptotic cells at 0.03 uM incubated for 72 hrs by Annexin V-FITC/PI staining based flow cytometry (reference value: 1.55 %); format: functional
HCT-116 [9] = experiment: Induction of apoptosis in human HCT-116 cells assessed as necrotic cells at 0.03 uM incubated for 72 hrs by Annexin V-FITC/PI staining based flow cytometry (reference value: 0.33 %); format: functional
HCT-116 [10] = experiment: Induction of apoptosis in human HCT-116 cells assessed as viable cells at 0.3 uM incubated for 72 hrs by Annexin V-FITC/PI staining based flow cytometry (reference value: 97.1 %); format: functional; conditions: read-out: Activity
HCT-116 [11] = experiment: Induction of apoptosis in human HCT-116 cells assessed as early apoptotic cells at 0.3 uM incubated for 72 hrs by Annexin V-FITC/PI staining based flow cytometry (reference value: 1.55 %); format: functional
HCT-116 [12] = experiment: Induction of apoptosis in human HCT-116 cells assessed as late apoptotic cells at 0.3 uM incubated for 72 hrs by Annexin V-FITC/PI staining based flow cytometry (reference value: 0.98 %); format: functional
HCT-116 [13] = experiment: Induction of apoptosis in human HCT-116 cells assessed as necrotic cells at 0.3 uM incubated for 72 hrs by Annexin V-FITC/PI staining based flow cytometry (reference value: 0.33 %); format: functional
HCT-116 [14] = experiment: Induction of apoptosis in human HCT-116 cells assessed as viable cells at 3 uM incubated for 72 hrs by Annexin V-FITC/PI staining based flow cytometry (reference value: 97.1 %); format: functional; conditions: read-out: Activity
HCT-116 [15] = experiment: Induction of apoptosis in human HCT-116 cells assessed as necrotic cells at 3 uM incubated for 72 hrs by Annexin V-FITC/PI staining based flow cytometry (reference value: 0.33 %); format: functional
HCT-116 [16] = experiment: Induction of mitochondrial membrane potential loss in human HCT-116 cells assessed as increase in green fluorescence incubated upto 3 uM by JC-1 dye based analysis; format: functional, cell-based
HCT-116 [17] = experiment: Induction of apoptosis in human HCT-116 cells assessed as increase in cleaved caspase-3 level upto 3 uM incubated for 72 hrs by Western blot analysis; format: functional, cell-based
HCT-116 [18] = experiment: Induction of apoptosis in human HCT-116 cells assessed as increase in JNK level upto 3 uM incubated for 72 hrs by Western blot analysis; format: functional, cell-based
HCT-116 [19] = experiment: Induction of cell cycle arrest in human HCT-116 cells assessed as accumulation at G0/G1 phase at 0.3 uM incubated for 72 hrs by PI staining based flow cytometry (reference value: 80.71 %); format: functional
HCT-116 [20] = experiment: Induction of cell cycle arrest in human HCT-116 cells assessed as accumulation at S phase at 0.3 uM incubated for 72 hrs by PI staining based flow cytometry (reference value: 23.49 %); format: functional
HCT-116 [21] = experiment: Induction of cell cycle arrest in human HCT-116 cells assessed as accumulation at S phase at 3 uM incubated for 72 hrs by PI staining based flow cytometry (reference value: 23.49 %); format: functional
HCT-116 [22] = experiment: Induction of cell cycle arrest in human HCT-116 cells assessed as accumulation at G2/M phase at 0.3 uM incubated for 72 hrs by PI staining based flow cytometry (reference value: 15.79 %); format: functional
HCT-116 [23] = experiment: Induction of cell cycle arrest in human HCT-116 cells assessed as accumulation at G2/M phase at 3 uM incubated for 72 hrs by PI staining based flow cytometry (reference value: 15.79 %); format: functional
HCT-116 [24] = experiment: Induction of cell cycle arrest in human HCT-116 cells at G2/M phase assessed as increase in p53 level incubated for 72 hrs by Western blot analysis; format: functional, cell-based; conditions: dose <= 3.0 µM
[25] = Toxicity in BALB/c mouse assessed as loss of appetite at 100 mg/kg, ip administered continuously for 7 days; format: organism-based; conditions: in vivo, 168 h, time 7 day
[26] = Toxicity in BALB/c mouse assessed as diarrhea at 100 mg/kg, ip administered continuously for 7 days; format: organism-based; conditions: in vivo, 168 h, time 7 day
[27] = Toxicity in BALB/c mouse assessed as animal death at 100 mg/kg, ip administered continuously for 7 days; format: organism-based; conditions: in vivo, 168 h, time 7 day
[28] = Toxicity in BALB/c mouse assessed as apparent damage in heart at 100 mg/kg, ip administered continuously for 7 days by H and E staining based analysis; format: organism-based; conditions: in vivo, 168 h, time 7 day
[29] = Toxicity in BALB/c mouse assessed as apparent damage in liver at 100 mg/kg, ip administered continuously for 7 days by H and E staining based analysis; format: organism-based; conditions: in vivo, 168 h, time 7 day
[30] = Toxicity in BALB/c mouse assessed as apparent damage in lungs at 100 mg/kg, ip administered continuously for 7 days by H and E staining based analysis; format: organism-based; conditions: in vivo, 168 h, time 7 day
[31] = Toxicity in BALB/c mouse assessed as toxic effect upto 100 mg/kg, ip administered continuously for 7 days; format: organism-based; conditions: in vivo, 168 h, time 7 day
HCT-116 [32] = experiment: Antitumor activity against human HCT-116 cells xenografted in mouse at 50 mg/kg, ip administered once in every 2 days for 21 days relative to control; format: functional; conditions: HCT-116, 504 h, time 21 day, read-out: TGI
HCT-116 [33] = experiment: Antitumor activity against human HCT-116 cells xenografted in mouse assessed as reduction in tumor cell mitotic figures at 50 mg/kg, ip administered once in every 2 days for 21 days by H and E staining based analysis; format: functional, organism-based; conditions: time 21.0 day
HCT-116 [34] = experiment: Antitumor activity against human HCT-116 cells xenografted in mouse assessed as reduction in nuclear-cytoplasmic ratio at 50 mg/kg, ip administered once in every 2 days for 21 days by H and E staining based analysis; format: functional, organism-based; conditions: time 21.0 day

C[C@@H]1CC[C@H]2[C@@H](C)C(OC(=O)Nc3ccc(Cl)cc3)O[C@@H]3O[C@@]4(C)CC[C@H]1[C@]32OO4 (stereo partly specified)
IC50 (Bel-7402): 8.41 µM | IC50 (SW-620): 0.6 µM | inhibition (HCT-116 [1]): Dose-dependent-effect | selectivity ratio [2]: 2 | selectivity ratio [3]: 54.1 | inhibition at 3 µM (HCT-116 [4]): 11.3% | inhibition (HCT-116 [5]): Active | Activity (HCT-116 [6]): Active | Activity (HCT-116 [7]): Active | Activity (HCT-116 [8]): 4.11% | Activity (HCT-116 [9]): 0.22% | viability at 0.3 µM (HCT-116 [10]): 81.9% | Activity (HCT-116 [11]): 9.8% | Activity (HCT-116 [12]): 8.21% | Activity (HCT-116 [13]): 0.071% | viability at 3 µM (HCT-116 [14]): 56.7% | Activity (HCT-116 [15]): 0.026% | Activity (HCT-116 [16]): Active | Activity (HCT-116 [17]): Active | Activity (HCT-116 [18]): Active | Activity (HCT-116 [19]): 37.62% | Activity (HCT-116 [20]): 24.55% | Activity (HCT-116 [21]): 23.71% | Activity (HCT-116 [22]): 37.8% | Activity (HCT-116 [23]): 33.23% | Activity (HCT-116 [24]): Dose-dependent-effect | Activity [25]: Non-toxic | Activity [26]: Non-toxic | Activity [27]: Non-toxic | Activity [28]: Non-toxic | Activity [29]: Non-toxic | Activity [30]: Non-toxic | Activity [31]: Non-toxic | inhibition in vivo at 50 mg/kg (HCT-116 [32]): ≤ 58.7% | Activity (HCT-116 [33]): Active | Activity (HCT-116 [34]): Active
